The source of these data is US20230019027A1, “SHORT CONJUGATED OLIGOELECTROLYTESAND ANTIBIOTICS” (The Regents Of The University Of California, priority 2019, published 2023).

Assay type in all cases: cell-based
In data set [1] the test system is E. Coli K-12. Nature of the data set: Susceptibility test: individual MIC and check point FIC. Also noted: MICCOE: unit not given beside the values. The note with it: for MICantibiotic: antibiotic alone, unit assumed; for FIC: smallest FIC. The protocol:
(§1) FIC was calculated based on the toxicity of each molecule on E. coli as well as their combined toxicity on E. coli. The equation for calculation is as follows:
(§2) FIC═[COE]/MICCOE+[Antibiotic]/MICantibiotic
(§3) An FIC less than ≤0.5 indicates synergy, FIC in the range of >0.5 and ≤1.0 indicates additive activity, FIC in the range of >1 and […] indicates indifference, and a FIC >4 indicates antagonism.
(§4) Minimal inhibition concentration (MIC) were used to determine the toxicity of individual molecules as well as them in combination on several bacterial strains. The individual MIC were determined by the minimal concentration of molecules required to inhibit the growth of the bacterial strain in culture medium (such as Lysogeny broth (LB) and Muller Hinton Broth (MHB)) at 37° C. overnight. The combined MICs were measured by using check point method, where the bacterial strain was cultured in a 96-well plate assay with a series concentrations of COE along the rows and a series concentrations of antibiotic molecules along the columns in culture medium at 37° C. overnight. The preparation of the bacterial strain for the assay was done as known in the art. […] Further information regarding the protocol can be found in Wiegand et al., Natl. Protoc., (2008) 3(2):163-75, Orhan et al., J. of Clin. Microbiol. (2005) 43(1):140-143 and Yan et al., Chem. Sci., (2016) 7(9):5714-5722.

In data set [2] the test system is Pseudomonas aeruginosa 01 (PA01). The data set is described as above. Also on record: unit not given beside the values. The note with it: antibiotic alone, 37° C. overnight. The protocol:
as §1, §2, §3, §4

The subject of data set [3] is Colistin resistant Pseudomonas aeruginosa. Described as above. Also on record: MICantibiotic / MICCOE: unit not given beside the values. The protocol:
as §1, §2, §3, §4

The subject of data set [4] is Acinetobactor baumanni. The description is as above. As to the method:
as §1, §2, §3, §4

Data set [5] concerns Colistin resistant Acinetobactor baumanni. The description is as above. As to the method:
as §1, §2, §3, §4

Data set [6] relates to HepG2 (ATCC HB-8065) cells. Nature of the data set: Cellular cytotoxicity, MTT viability assay. The note with it: 24 h incubation, at 128 μg/mL. The protocol: Cellular cytotoxicity was assessed using an MTT viability assay. HepG2 (ATCC HB-8065) cells were seeded at 1×10^4 cells/well in 96 well plates over night at 37° C. in DMEM supplemented with 10% FBS before use. COEs were serially diluted with 2-fold dilution in culture media to afford a concentration ranging from 2 to 128 μg/mL. After 24 h incubation, 10 μL of a 5 mg/mL solution of MTT was added to each well. After incubation for 2-4 h, upon discard of previous media, 100 μL of DMSO as solubilizing solution was added to each well, and absorbance at 570 nm were measured on a plate reader. Percent viability was determined by dividing background-corrected absorbance measurements by background corrected measurements for untreated cells. Formula O, Formula TT and Formula PP were measured to be around 94%, 70% and 103% of cell viability at 128 μg/mL, respectively.

The mark [7] stands for this setting: COE in combination with Colistin, smallest FIC.

With `O=C(O)c1cn(C2CC2)c2cc(N3CCNCC3)c(F)cc2c1=O` [Ciprofloxacin, ciprofloxacin], the MICantibiotic in data set [1] (E. Coli K-12) worked out at 0.125 µg/mL.
With `O=C(N[C@H](CO)[C@H](O)c1ccc([N+](=O)[O-])cc1)C(Cl)Cl` [Chloramphenicol, chloramphenicol], the MICantibiotic in data set [1] (E. Coli K-12) turned out to be 16 µg/mL.
Turning to colistin [reference compound], the MICantibiotic in data set [2] was 1; in data set [3] (antibiotic alone), 16; in data set [4] (antibiotic alone), 256; in data set [5] (antibiotic alone), 512; in data set [1] (E. Coli K-12), 1 µg/mL.
Regarding penicillin, the MICantibiotic in data set [1] (E. Coli K-12) is 64 µg/mL.
Consider `C[N+](C)(C)CCCCCCOc1cc(/C=C/c2ccc(/C=C/c3ccc(/C=C/c4cc(OCCCCCC[N+](C)(C)C)cc(OCCCCCC[N+](C)(C)C)c4)cc3)cc2)cc(OCCCCCC[N+](C)(C)C)c1` [Formula TT], for which the MICCOE in data set [3] (COE alone) is reported as 256; in data set [4] (COE alone), 256; in data set [5] (COE alone), 256; in data set [1] (COE alone, E. Coli K-12), 1024. Further, the FIC in data set [3] (setting [7]) is on record as 0.14; in data set [4] (setting [7]) it was 0.51; in data set [5] (setting [7]), 0.25; in data set [1] (COE in combination with Chloramphenicol, E. Coli K-12) it was 1.0; in data set [1] (COE in combination with Penicillin, E. Coli K-12) it was 0.53; in data set [1] (COE in combination with Rifampin, E. Coli K-12) it was 0.28. In addition, the “antimicrobial effect of combination (in words)” value is on record as “significant synergistic antimicrobial effect” in data set [3] (with colistin); “significant synergistic antimicrobial effect” in data set [5] (with colistin); “significant synergistic antimicrobial effect” in data set [1] (with rifampin, E. coli K-12). The cell viability in data set [6] is ~70%.
For the compound `Cc1cc(NS(=O)(=O)c2ccc(N)cc2)no1` [Sulfamethoxazole, sulfamethoxazole], the MICantibiotic in data set [1] (E. Coli K-12) worked out at 512 µg/mL.
As to `CO[C@H]1/C=C/O[C@@]2(C)Oc3c(C)c(O)c4c(O)c(c(/C=N/N5CCN(C)CC5)c(O)c4c3C2=O)NC(=O)/C(C)=C\C=C\[C@H](C)[C@H](O)[C@@H](C)[C@@H](O)[C@@H](C)[C@H](OC(C)=O)[C@@H]1C` [Rifampin, rifampin], the MICantibiotic in data set [1] (E. Coli K-12) was 32 µg/mL.
Same read-out and setting: the value for `CC1(C)S[C@@H]2[C@H](NC(=O)[C@H](N)c3ccccc3)C(=O)N2[C@H]1C(=O)O` [Ampicilin, ampicillin] was 4 µg/mL.

For orientation: cell viability means a read-out of living cells in per cent, often relative to untreated cells.
